Measurements reported in patent publication US6358885B1, “Substituted phenylheterocyclic herbicides” (Mississippi State University, priority 1992, dated 2002).

How the values were obtained:
bedstraw [1] = assay: Test B preemergence/postemergence greenhouse plant response rating 0 to 10; format: in vivo, Galium aparine; settings: 0 to 10 scale
In short: (§1)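 Test chemicals, dissolved in a non-phytotoxic solvent, were applied to soil at planting and, at the same time, over foliage of seedlings at the one to four leaf stage.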

chickweed = assay: as above; format: in vivo, Stellaria media; settings: 0 to 10 scale
In short: as §1

corn [2] = assay: as above; format: in vivo, Zea mays; settings: 0 to 10 scale
In short: as §1

sugar beet = assay: as above; format: in vivo, Beta vulgaris; settings: 0 to 10 scale
In short: as §1

wild buckwheat = assay: as above; format: in vivo, Polygonum convolvulus; settings: 0 to 10 scale
In short: as §1

bedstraw [3] = assay: Test C preemergence/postemergence greenhouse plant response rating 0 to 100; format: in vivo, Galium aparine; settings: POSTEMERGENCE
In short: (§2)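 Compounds in non-phytotoxic solvent applied preemergence to sandy loam one day after planting, postemergence at the 1–4 leaf stage, or to ~2.5 cm floodwater over silt loam.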

corn [4] = assay: as above; format: in vivo, Zea mays; settings: POSTEMERGENCE
In short: as §2

cotton = assay: as above; format: in vivo, Gossypium hirsutum; settings: POSTEMERGENCE
In short: as §2

downy brome = assay: as above; format: in vivo, Bromus tectorum; settings: POSTEMERGENCE
In short: as §2

giant foxtail = assay: as above; format: in vivo, Setaria faberii; settings: POSTEMERGENCE
In short: as §2

morningglory = assay: as above; format: in vivo, Ipomoea hederacea; settings: POSTEMERGENCE
In short: as §2

sorghum = assay: as above; format: in vivo, Sorghum bicolor; settings: POSTEMERGENCE
In short: as §2

velvetleaf = assay: as above; format: in vivo, Abutilon theophrasti; settings: POSTEMERGENCE
In short: as §2

wheat = assay: as above; format: in vivo, Triticum aestivum; settings: POSTEMERGENCE
In short: as §2

wild oat = assay: as above; format: in vivo, Avena fatua; settings: POSTEMERGENCE
In short: as §2

duck salad = assay: Test C flood test plant response rating 0 to 100; format: in vivo, Heteranthera limosa
In short: as §2

barnyardgrass = assay: Test C flood test plant response rating 0 to 100; format: in vivo, Echinochloa crus-galli
In short: as §2

[5] = POSTEMERGENCE section, flood test, Rate 1 g/ha
[6] = POSTEMERGENCE section, flood test, Rate 4 g/ha
[7] = Rate 16 g/ha, under POSTEMERGENCE head (flood test species)
[8] = flood test species listed under POSTEMERGENCE, 62 g/ha, 0 to 100 scale

COCN1C(=O)COc2cc(F)c(-c3nn4c(c3Cl)CCCC4)cc21 [Compound 55]
70: Plant response rating Downy Brome (downy brome; 62 g/ha, 0 to 100 scale)
9: Plant response rating, Bedstraw (bedstraw [1]; POSTEMERGENCE, Rate 10 g/ha) | Plant response rating, Chickweed (chickweed; POSTEMERGENCE, Rate 10 g/ha) | Plant response rating, Chickweed (chickweed; PREEMERGENCE, Rate 10 g/ha)
80: Plant response rating (0 to 100), Morningglory (morningglory; Rate 1 g/ha) | Plant response rating (0 to 100), Velvetleaf (velvetleaf; Rate 1 g/ha)
10: Plant response rating, Bedstraw (bedstraw [1]; POSTEMERGENCE, Rate 50 g/ha) | Plant response rating, Bedstraw (bedstraw [1]; PREEMERGENCE, Rate 50 g/ha) | Plant response rating, Chickweed (chickweed; POSTEMERGENCE, Rate 50 g/ha) | Plant response rating, Chickweed (chickweed; PREEMERGENCE, Rate 50 g/ha) | Plant response rating, Sugar beet (sugar beet; POSTEMERGENCE, Rate 10 g/ha) | Plant response rating, Sugar beet (sugar beet; POSTEMERGENCE, Rate 50 g/ha) | Plant response rating, Sugar beet (sugar beet; PREEMERGENCE, Rate 50 g/ha) | Plant response rating, Wild buckwheat (wild buckwheat; POSTEMERGENCE, Rate 10 g/ha) | Plant response rating, Wild buckwheat (wild buckwheat; PREEMERGENCE, Rate 50 g/ha) | Plant response rating (0 to 100), Duck salad (duck salad; [7]) | Plant response rating (0 to 100), Barnyardgrass 2 (barnyardgrass; [5])
20: Plant response rating (0 to 100), Giant foxtail (giant foxtail; Rate 1 g/ha) | Plant response rating (0 to 100), Wild oat (wild oat; Rate 1 g/ha)
30: Plant response rating (0 to 100), Bedstraw (bedstraw [3]; Rate 1 g/ha) | Plant response rating (0 to 100), Corn (corn [4]; Rate 1 g/ha) | Plant response rating (0 to 100), Downy Brome (downy brome; Rate 1 g/ha) | Plant response rating (0 to 100), Giant foxtail (giant foxtail; Rate 4 g/ha) | Plant response rating (0 to 100), Sorghum (sorghum; Rate 1 g/ha) | Plant response rating (0 to 100), Wheat (wheat; Rate 1 g/ha) | Plant response rating (0 to 100), Wild oat (wild oat; Rate 4 g/ha)
50: Plant response rating, Corn (corn [4]; 62 g/ha, 0 to 100 scale) | Plant response rating (0 to 100), Corn (corn [4]; Rate 16 g/ha) | Plant response rating, Giant foxtail (giant foxtail; 62 g/ha, 0 to 100 scale) | Plant response rating (0 to 100), Sorghum (sorghum; Rate 16 g/ha) | Plant response rating (0 to 100), Wheat (wheat; Rate 16 g/ha) | Plant response rating Duck salad (duck salad; [8])
40: Plant response rating (0 to 100), Corn (corn [4]; Rate 4 g/ha) | Plant response rating (0 to 100), Downy Brome (downy brome; Rate 4 g/ha) | Plant response rating (0 to 100), Giant foxtail (giant foxtail; Rate 16 g/ha) | Plant response rating (0 to 100), Sorghum (sorghum; Rate 4 g/ha) | Plant response rating (0 to 100), Wheat (wheat; Rate 4 g/ha) | Plant response rating (0 to 100), Wild oat (wild oat; Rate 16 g/ha)
3: Plant response rating, Bedstraw (bedstraw [1]; PREEMERGENCE, Rate 10 g/ha) | Plant response rating, Corn (corn [2]; POSTEMERGENCE, Rate 10 g/ha)
1: Plant response rating, Corn (corn [2]; PREEMERGENCE, Rate 50 g/ha)
90: Plant response rating (0 to 100), Bedstraw (bedstraw [3]; Rate 4 g/ha) | Plant response rating (0 to 100), Cotton (cotton; Rate 1 g/ha) | Plant response rating (0 to 100), Barnyardgrass 2 (barnyardgrass; [7])
5: Plant response rating, Corn (corn [2]; POSTEMERGENCE, Rate 50 g/ha)
100: Plant response rating, Bedstraw (bedstraw [3]; 62 g/ha, 0 to 100 scale) | Plant response rating (0 to 100), Bedstraw (bedstraw [3]; Rate 16 g/ha) | Plant response rating, Cotton (cotton; 62 g/ha, 0 to 100 scale) | Plant response rating (0 to 100), Cotton (cotton; Rate 4 g/ha) | Plant response rating (0 to 100), Cotton (cotton; Rate 16 g/ha) | Plant response rating, Morningglory (morningglory; 62 g/ha, 0 to 100 scale) | Plant response rating (0 to 100), Morningglory (morningglory; Rate 4 g/ha) | Plant response rating (0 to 100), Morningglory (morningglory; Rate 16 g/ha) | Plant response rating, Velvetleaf (velvetleaf; 62 g/ha, 0 to 100 scale) | Plant response rating (0 to 100), Velvetleaf (velvetleaf; Rate 4 g/ha) | Plant response rating (0 to 100), Velvetleaf (velvetleaf; Rate 16 g/ha) | Plant response rating Barnyardgrass 2 (barnyardgrass; [8])
60: Plant response rating (0 to 100), Downy Brome (downy brome; Rate 16 g/ha) | Plant response rating, Sorghum (sorghum; 62 g/ha, 0 to 100 scale) | Plant response rating, Wheat (wheat; 62 g/ha, 0 to 100 scale) | Plant response rating, Wild oat (wild oat; 62 g/ha, 0 to 100 scale) | Plant response rating (0 to 100), Barnyardgrass 2 (barnyardgrass; [6])
0: Plant response rating, Wild buckwheat (wild buckwheat; POSTEMERGENCE, Rate 50 g/ha) | Plant response rating (0 to 100), Duck salad (duck salad; [5]) | Plant response rating (0 to 100), Duck salad (duck salad; [6])
